In patent US4012576A, “Antibiotic complex Bu 2183” (priority 1975, dated 1977):
Converted amounts (≈) assume the structure as drawn. Like-named read-outs stand apart in the source and are kept apart here.

What was measured:
[1] = system: E. coli A20107; test: MIC, two-fold agar dilution on Nutrient Agar; format: cell-based; conditions: Escherichia coli, read-out: MIC
Protocol: (§1) The minimum inhibitory concentrations (MIC) of Bu-2183 A and B were determined against a wide variety of bacteria by the two-fold agar dilution method on Nutrient Agar plates. The inocula-replicating device of Steers et al. was used. Inoculum size was adjusted to be 10^4 dilution of overnight culture of the test organisms in Heart Infusion Broth (Difco). The results are shown in Table 6 along with those of kanamycin which was comparatively tested as a reference antibiotic.

[2] = system: E. coli A20732; test: MIC, two-fold agar dilution on Nutrient Agar; format: cell-based
Protocol: as §1

[3] = system: E. coli JR 66/W677; test: MIC, two-fold agar dilution on Nutrient Agar; format: cell-based; conditions: Escherichia coli
Protocol: as §1

[4] = system: E. coli ML 1630; test: MIC, two-fold agar dilution on Nutrient Agar; format: cell-based; conditions: Escherichia coli, read-out: MIC
Protocol: as §1

[5] = system: E. coli NIHJ; test: MIC, two-fold agar dilution on Nutrient Agar; format: cell-based; conditions: Escherichia coli, read-out: MIC
Protocol: as §1

[6] = system: E. coli PO 1495; test: MIC, two-fold agar dilution on Nutrient Agar; format: cell-based
Protocol: as §1

[7] = system: E. coli R 5; test: MIC, two-fold agar dilution on Nutrient Agar; format: cell-based; conditions: Escherichia coli
Protocol: as §1

[8] = system: Ent. cloacae A20364; test: MIC, two-fold agar dilution on Nutrient Agar; format: cell-based
Protocol: as §1

[9] = system: K. pneumoniae D11; test: MIC, two-fold agar dilution on Nutrient Agar; format: cell-based; conditions: Klebsiella pneumoniae, read-out: MIC
Protocol: as §1

[10] = system: K. pneumoniae Type 22-3038; test: MIC, two-fold agar dilution on Nutrient Agar; format: cell-based
Protocol: as §1

[11] = system: Pr. morganii A20031; test: MIC, two-fold agar dilution on Nutrient Agar; format: cell-based
Protocol: as §1

[12] = system: Pr. vulgaris A9436; test: MIC, two-fold agar dilution on Nutrient Agar; format: cell-based; conditions: Proteus vulgaris, read-out: MIC
Protocol: as §1

[13] = system: Prov. stuartii A20894; test: MIC, two-fold agar dilution on Nutrient Agar; format: cell-based
Protocol: as §1

[14] = system: Ps. aeruginosa A20601; test: MIC, two-fold agar dilution on Nutrient Agar; format: cell-based; conditions: Pseudomonas aeruginosa, read-out: MIC
Protocol: as §1

[15] = system: Ps. aeruginosa A20653; test: MIC, two-fold agar dilution on Nutrient Agar; format: cell-based; conditions: Pseudomonas aeruginosa, read-out: MIC
Protocol: as §1

[16] = system: Ps. aeruginosa A20896; test: MIC, two-fold agar dilution on Nutrient Agar; format: cell-based; conditions: Pseudomonas aeruginosa, read-out: MIC
Protocol: as §1

[17] = system: Ps. aeruginosa A9930; test: MIC, two-fold agar dilution on Nutrient Agar; format: cell-based
Protocol: as §1

[18] = system: Ps. aeruginosa GN 315; test: MIC, two-fold agar dilution on Nutrient Agar; format: cell-based
Protocol: as §1

[19] = system: Pseudomonas sp. A20621; test: MIC, two-fold agar dilution on Nutrient Agar; format: cell-based
Protocol: as §1

[20] = system: S. aureus D133; test: MIC, two-fold agar dilution on Nutrient Agar; format: cell-based; conditions: Staphylococcus aureus, read-out: MIC
Protocol: as §1

[21] = system: S. aureus D137; test: MIC, two-fold agar dilution on Nutrient Agar; format: cell-based; conditions: Staphylococcus aureus, read-out: MIC
Protocol: as §1

[22] = system: S. aureus D193; test: MIC, two-fold agar dilution on Nutrient Agar; format: cell-based
Protocol: as §1

[23] = system: Ser. marcescens A20019; test: MIC, two-fold agar dilution on Nutrient Agar; format: cell-based
Protocol: as §1

[24] = system: Ser. marcescens A21247; test: MIC, two-fold agar dilution on Nutrient Agar; format: cell-based; conditions: Serratia marcescens, read-out: MIC
Protocol: as §1

[25] = system: E. coli NIHJ; test: Experimental infection of mice, median protective dose; format: in vivo; conditions: Escherichia coli, sc, 120 h
Protocol: (§2) Bu-2183 A and B were evaluated in vivo in experimental infections of mice. The pathogenic bacteria employed were S. aureus Smith, E. coli NIHJ and Ps. aeruginosa A9930. Mice were challenged with a 100 × LD50 dose of the pathogens in a 5% suspension of hog gastric mucin. A single subcutaneous treatment with the antibiotic was made immediately after the bacterial challenge (0 hour), and in a double dose schedule the antibiotic was administered at 0 and 3 hours after the challenge.

[26] = system: Ps. aeruginosa A9930; test: as above; format: in vivo; conditions: Pseudomonas aeruginosa, A9930, sc, 120 h
Protocol: as §2

[27] = system: S. aureus Smith; test: as above; format: in vivo; conditions: Staphylococcus aureus, sc, 120 h
Protocol: as §2

[28] = system: Gram-positive and Gram-negative bacteria; test: In vitro antibacterial activity (general); format: cell-based; conditions: for antibacterial spectrum: in vitro
Protocol: as §1

[29] = Escherichia coli, A20732, Table 6, Ec-72, read-out: MIC
[30] = Escherichia coli, PO1495, Table 6, Ec-2, read-out: MIC
[31] = Enterobacter cloacae, A20364, Table 6, El-2, read-out: MIC
[32] = Klebsiella pneumoniae, TYPE223038, Table 6, Kp-8, read-out: MIC
[33] = Morganella morganii, A20031, Table 6, Pg-2, read-out: MIC
[34] = Providencia stuartii, A20894, Table 6, Ps-2, read-out: MIC
[35] = Pseudomonas aeruginosa, A9930, Table 6, Pa-3, read-out: MIC
[36] = Pseudomonas aeruginosa, GN315, Table 6, Pa-27, read-out: MIC
[37] = Pseudomonas, SP.A20621, Table 6, Px-10, read-out: MIC
[38] = Staphylococcus aureus, D193, Table 6, Sa-3, read-out: MIC
[39] = Serratia marcescens, A20019, Table 6, Sm-1, read-out: MIC
[40] = double dose at 0 and 3 hours after challenge, read-out: PD50 (double doses)
[41] = subcutaneous, single dose at 0 hour, 100 × LD50 challenge, read-out: PD50 (single dose)

CCC(=O)NC1C(CO)OC(OC(C(O)CN)C(N)C(O)CO)C(O)C1O (stereo not shown) [Bu-2183 A]
MIC ([1]; A20107, Table 6, Ec-49): 12.5 µg/mL (≈ 31.5 µM) | MIC ([1]; A20107, Table 7, Ec-49): 25 µg/mL (≈ 62.9 µM) | MIC [2, 29]: 12.5 µg/mL (≈ 31.5 µM) | MIC ([2]; Table 7, Ec-72): 12.5 µg/mL (≈ 31.5 µM) | MIC ([3]; JR66/W677, Table 6, Ec-53): 6.3 µg/mL (≈ 15.9 µM) | MIC ([3]; JR66/W677, Table 7, Ec-53): 25 µg/mL (≈ 62.9 µM) | MIC ([4]; ML1630, Table 6, Ec-5): 12.5 µg/mL (≈ 31.5 µM) | MIC ([4]; ML1630, Table 7, Ec-5): 25 µg/mL (≈ 62.9 µM) | MIC ([5]; Table 6, Ec-1): 12.5 µg/mL (≈ 31.5 µM) | MIC ([5]; Table 7, Ec-1): 25 µg/mL (≈ 62.9 µM) | MIC [6, 30]: 25 µg/mL (≈ 62.9 µM) | MIC ([6]; Table 7, Ec-2): 25 µg/mL (≈ 62.9 µM) | MIC ([7]; R5, Table 6, Ec-55): 25 µg/mL (≈ 62.9 µM) | MIC ([7]; R5, Table 7, Ec-55): 6.3 µg/mL (≈ 15.9 µM) | MIC [8, 31]: 25 µg/mL (≈ 62.9 µM) | MIC ([8]; Table 7, El-2): 25 µg/mL (≈ 62.9 µM) | MIC ([9]; D11, Table 6, Kp-1): 3.1 µg/mL (≈ 7.8 µM) | MIC ([9]; D11, Table 7, Kp-1): 6.3 µg/mL (≈ 15.9 µM) | MIC [10, 32]: 25 µg/mL (≈ 62.9 µM) | MIC ([10]; Table 7, Kp-8 (printed Type 22-3028)): 25 µg/mL (≈ 62.9 µM) | MIC [11, 33]: 25 µg/mL (≈ 62.9 µM) | MIC ([11]; Table 7, Pg-2): 25 µg/mL (≈ 62.9 µM) | MIC ([12]; A9436, Table 6, Pv-1): 12.5 µg/mL (≈ 31.5 µM) | MIC ([12]; A9436, Table 7, Pv-1): 25 µg/mL (≈ 62.9 µM) | MIC [13, 34]: > 100 µg/mL | MIC ([13]; Table 7, Ps-2): > 100 µg/mL | MIC ([14]; A20601, Table 6, Pa-21): 25 µg/mL (≈ 62.9 µM) | MIC ([14]; A20601, Table 7, Pa-21): 50 µg/mL (≈ 126 µM) | MIC ([15]; A20653, Table 6, Pa-12): 25 µg/mL (≈ 62.9 µM) | MIC ([15]; A20653, Table 7, Pa-12): 50 µg/mL (≈ 126 µM) | MIC ([16]; A20896, Table 6, Pa-24): 25 µg/mL (≈ 62.9 µM) | MIC ([16]; A20896, Table 7, Pa-24): 50 µg/mL (≈ 126 µM) | MIC [17, 35]: 12.5 µg/mL (≈ 31.5 µM) | MIC ([17]; Table 7, Pa-3): 12.5 µg/mL (≈ 31.5 µM) | MIC [18, 36]: 25 µg/mL (≈ 62.9 µM) | MIC ([18]; Table 7, Pa-27): 25 µg/mL (≈ 62.9 µM) | MIC [19, 37]: > 100 µg/mL | MIC ([19]; Table 7, Px-10): > 100 µg/mL | MIC ([20]; D133, Table 6, Sa-4): 25 µg/mL (≈ 62.9 µM) | MIC ([20]; D133, Table 7, Sa-4): 50 µg/mL (≈ 126 µM) | MIC ([21]; D137, Table 6, Sa-9): 100 µg/mL (≈ 252 µM) | MIC ([21]; D137, Table 7, Sa-9): 50 µg/mL (≈ 126 µM) | MIC [22, 38]: 25 µg/mL (≈ 62.9 µM) | MIC ([22]; Table 7, Sa-3): 25 µg/mL (≈ 62.9 µM) | MIC [23, 39]: > 100 µg/mL | MIC ([23]; Table 7, Sm-1): > 100 µg/mL | MIC ([24]; A21247, Table 6, Sm-16): 100 µg/mL (≈ 252 µM) | MIC ([24]; A21247, Table 7, Sm-16): > 100 µg/mL | ED50 [25, 40]: 45 mg/kg | ED50 [25, 41]: 92 mg/kg | ED50 [26, 40]: 80 mg/kg | ED50 [26, 41]: 230 mg/kg | ED50 [27, 40]: 36 mg/kg | ED50 [27, 41]: 42 mg/kg | bio-activity [28]: bio-active | intrinsic activity in terms of MIC values [28]: moderate or rather weak | activity of component A relative to B ([28]; MIC, Table 6): 2-4 fold | antibacterial spectrum [28]: broad spectrum of antibacterial activity against Gram-positive and Gram-negative bacteria including many of the aminoglycoside-resistant organisms and Pseudomonas strains

CC(=O)NC1C(CO)OC(OC(C(O)CN)C(N)C(O)CO)C(O)C1O (stereo not shown) [Bu-2183 B]
MIC ([1]; A20107, Table 6, Ec-49): 50 µg/mL (≈ 130 µM) | MIC [2, 29]: 25 µg/mL (≈ 65.2 µM) | MIC ([3]; JR66/W677, Table 6, Ec-53): 25 µg/mL (≈ 65.2 µM) | MIC ([4]; ML1630, Table 6, Ec-5): 50 µg/mL (≈ 130 µM) | MIC ([5]; Table 6, Ec-1): 50 µg/mL (≈ 130 µM) | MIC [6, 30]: 50 µg/mL (≈ 130 µM) | MIC ([7]; R5, Table 6, Ec-55): 100 µg/mL (≈ 261 µM) | MIC [8, 31]: 50 µg/mL (≈ 130 µM) | MIC ([9]; D11, Table 6, Kp-1): 12.5 µg/mL (≈ 32.6 µM) | MIC [10, 32]: 100 µg/mL (≈ 261 µM) | MIC [11, 33]: 50 µg/mL (≈ 130 µM) | MIC ([12]; A9436, Table 6, Pv-1): 50 µg/mL (≈ 130 µM) | MIC [13, 34]: > 100 µg/mL | MIC ([14]; A20601, Table 6, Pa-21): 50 µg/mL (≈ 130 µM) | MIC ([15]; A20653, Table 6, Pa-12): 100 µg/mL (≈ 261 µM) | MIC ([16]; A20896, Table 6, Pa-24): 100 µg/mL (≈ 261 µM) | MIC [17, 35]: 25 µg/mL (≈ 65.2 µM) | MIC [18, 36]: 50 µg/mL (≈ 130 µM) | MIC [19, 37]: > 100 µg/mL | MIC ([20]; D133, Table 6, Sa-4): > 100 µg/mL | MIC ([21]; D137, Table 6, Sa-9): > 100 µg/mL | MIC [22, 38]: 25 µg/mL (≈ 65.2 µM) | MIC [23, 39]: > 100 µg/mL | MIC ([24]; A21247, Table 6, Sm-16): > 100 µg/mL | ED50 [25, 41]: 135 mg/kg | ED50 [26, 41]: 540 mg/kg | ED50 [27, 41]: 100 mg/kg | bio-activity [28]: bio-active | intrinsic activity in terms of MIC values [28]: moderate or rather weak | antibacterial spectrum ([28]; listed as B): broad spectrum of antibacterial activity against Gram-positive and Gram-negative bacteria including many of the aminoglycoside-resistant organisms and Pseudomonas strains
